From PubChem BioAssay AID330 (DTP/NCI, 2004)
“And” between values parts separate entries of the source, which are not always exact repeats. Identical values can stand only once. Inconclusive results and toxic doses are left out. How the source made its calls: active means survival T/C of 150% or more; inactive means T/C below 125% in these data.

System: P388 leukemia ip, CD2F1 mice, survival T/C
Test: NCI In Vivo Anticancer Drug Screen. Data for tumor model P388 Leukemia (intraperitoneal) in CD2F1 (CDF1) mice
Conditions: endpoint: median survival time, higher = longer survival
Method in brief: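 Mice carrying the transplanted tumor received test compound or vehicle. Survival was recorded in each group, and the value is the treated-group measurement divided by that of the vehicle-treated control group.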

[1] = dose: 50.0 mg/kg/injection, schedule: Q01DX005 (ip), vehicle: Klucel (hydroxypropylcellulose) (HPC)
[2] = dose: 100.0 mg/kg/injection, schedule: Q01DX005 (ip), vehicle: Klucel (hydroxypropylcellulose) (HPC)
[3] = dose: 200.0 mg/kg/injection, schedule: Q01DX005 (ip), vehicle: Klucel (hydroxypropylcellulose) (HPC)
[4] = dose: 50.0 mg/kg/injection, schedule: Q01DX005 (ip), vehicle: saline
[5] = dose: 25.0 mg/kg/injection, schedule: Q01DX009 (ip), vehicle: saline with Tween-80
[6] = dose: 50.0 mg/kg/injection, schedule: Q01DX009 (ip), vehicle: saline with Tween-80
[7] = dose: 100.0 mg/kg/injection, schedule: Q01DX009 (ip), vehicle: saline with Tween-80
[8] = dose: 25.0 mg/kg/injection, schedule: Q01DX005 (ip), vehicle: saline
[9] = dose: 200.0 mg/kg/injection, schedule: Q01DX009 (ip), vehicle: saline with Tween-80
[10] = dose: 100.0 mg/kg/injection, schedule: Q01DX009 (ip), vehicle: saline
[11] = dose: 30.0 mg/kg/injection, schedule: Q01DX005 (ip), vehicle: Klucel (hydroxypropylcellulose) (HPC)
[12] = dose: 60.0 mg/kg/injection, schedule: Q01DX005 (ip), vehicle: Klucel (hydroxypropylcellulose) (HPC)
[13] = dose: 60.0 mg/kg/injection, schedule: Q01DX005 (ip), vehicle: saline with Tween-80
[14] = dose: 120.0 mg/kg/injection, schedule: Q01DX005 (ip), vehicle: saline with Tween-80

Measured: T/C

CC(=O)Nc1c(Br)cc(Br)c2c1C(=O)c1ccccc1-2
inactive: [1] 91 % of control | [2] 91 % of control | [3] 97 % of control

CN1CCN(C)C(N2CCOCC2)C(C)(C)C1 (stereo not drawn)
inactive: [4] 93 % of control | dose: 100.0 mg/kg/injection, schedule: Q01DX005 (ip), vehicle: saline 94 % of control | dose: 200.0 mg/kg/injection, schedule: Q01DX005 (ip), vehicle: saline 95 % of control

CCC(SC)(SC)C(=O)N(C)c1ccccc1
inactive: [5] 100 % of control | [6] 104 % of control | [7] 100 % of control

COc1cc2c(cc1OC)/C(=N/N)CCC2
inactive: dose: 3.13 mg/kg/injection, schedule: Q01DX009 (ip), vehicle: water 100 % of control | dose: 6.25 mg/kg/injection, schedule: Q01DX009 (ip), vehicle: water 100 % of control | dose: 12.5 mg/kg/injection, schedule: Q01DX009 (ip), vehicle: water 95 % of control | dose: 25.0 mg/kg/injection, schedule: Q01DX009 (ip), vehicle: water 91 % of control | dose: 50.0 mg/kg/injection, schedule: Q01DX009 (ip), vehicle: water 91 % of control

CCC(C)N(CC(C)C)CC(C)(O)CNc1cc(OC)cc2cccnc12 (stereo not drawn)
inactive: dose: 12.0 mg/kg/injection, schedule: Q01DX005 (ip), vehicle: saline 100 % of control | [8] 105 % of control | [4] 108 % of control and 96 % of control

CC(C)NC(=O)c1ccc(CBr)cc1
inactive: dose: 1.56 mg/kg/injection, schedule: Q01DX009 (ip), vehicle: other 95 % of control | dose: 3.13 mg/kg/injection, schedule: Q01DX009 (ip), vehicle: other 95 % of control | dose: 6.25 mg/kg/injection, schedule: Q01DX009 (ip), vehicle: other 98 % of control | dose: 12.5 mg/kg/injection, schedule: Q01DX009 (ip), vehicle: other 93 % of control | dose: 25.0 mg/kg/injection, schedule: Q01DX009 (ip), vehicle: other 112 % of control | dose: 50.0 mg/kg/injection, schedule: Q01DX009 (ip), vehicle: other 99 % of control

O=C(NC1CC1)c1ccccc1
inactive: [5] 96 % of control | [6] 100 % of control | [7] 87 % of control | [9] 87 % of control

CCCCC/C=C/C/C=C\CCCCCCCC(=O)NC(Cc1ccc(C)cc1)c1ccccc1 (stereo not drawn)
inactive: [6] 98 % of control | [7] 100 % of control | [9] 100 % of control

CC(=O)NN=C(c1ccccc1)c1ccccc1
inactive: [6] 100 % of control | [7] 100 % of control | [9] 100 % of control

C=C(C)/C([O-])=N/[N+](C)(C)CC(O)CCCCCCCCCCCC (stereo not drawn)
inactive: dose: 1.25 mg/kg/injection, schedule: Q01DX009 (ip), vehicle: Klucel (hydroxypropylcellulose) (HPC) 104 % of control | dose: 2.5 mg/kg/injection, schedule: Q01DX005 (ip), vehicle: Klucel (hydroxypropylcellulose) (HPC) 100 % of control | dose: 2.5 mg/kg/injection, schedule: Q01DX009 (ip), vehicle: Klucel (hydroxypropylcellulose) (HPC) 96 % of control | dose: 5.0 mg/kg/injection, schedule: Q01DX005 (ip), vehicle: Klucel (hydroxypropylcellulose) (HPC) 101 % of control | dose: 10.0 mg/kg/injection, schedule: Q01DX005 (ip), vehicle: Klucel (hydroxypropylcellulose) (HPC) 100 % of control | dose: 10.0 mg/kg/injection, schedule: Q01DX009 (ip), vehicle: Klucel (hydroxypropylcellulose) (HPC) 91 % of control | dose: 20.0 mg/kg/injection, schedule: Q01DX005 (ip), vehicle: Klucel (hydroxypropylcellulose) (HPC) 101 % of control | dose: 40.0 mg/kg/injection, schedule: Q01DX005 (ip), vehicle: Klucel (hydroxypropylcellulose) (HPC) 92 % of control

COc1cc(CCN)ccc1O
inactive: [10] 104 % of control and 98 % of control | dose: 200.0 mg/kg/injection, schedule: Q01DX009 (ip), vehicle: saline 100 % of control and 102 % of control | dose: 400.0 mg/kg/injection, schedule: Q01DX009 (ip), vehicle: saline 100 % of control and 107 % of control | dose: 600.0 mg/kg/injection, schedule: Q01DX009 (ip), vehicle: saline 102 % of control and 114 % of control

[Ni].c1c[nH]cn1.c1c[nH]cn1.c1c[nH]cn1.c1c[nH]cn1.c1c[nH]cn1.c1c[nH]cn1
inactive: dose: 6.25 mg/kg/injection, schedule: Q01DX005 (ip), vehicle: saline 92 % of control | dose: 12.5 mg/kg/injection, schedule: Q01DX005 (ip), vehicle: saline 86 % of control | [8] 87 % of control | [4] 100 % of control

Nc1cccc(S(=O)(=O)Nc2c(N)[nH]c(=S)[nH]c2=O)c1
inactive: [11] 101 % of control and 94 % of control | [12] 99 % of control and 100 % of control and 97 % of control | dose: 120.0 mg/kg/injection, schedule: Q01DX005 (ip), vehicle: Klucel (hydroxypropylcellulose) (HPC) 96 % of control and 97 % of control

CC(=O)N1N=C(c2ccc(OCC(O)CN3CCN(CC(O)COc4ccc(C5=NN(C(C)=O)C(c6ccccc6)C5)cc4)CC3)cc2)CC1c1ccccc1 (stereo not drawn)
inactive: dose: 50.0 mg/kg/injection, schedule: Q01DX005 (ip), vehicle: saline with Tween-80 100 % of control | dose: 100.0 mg/kg/injection, schedule: Q01DX005 (ip), vehicle: saline with Tween-80 86 % of control

O=C1OC2=CC=CC=CC2C12C1C=CC=CC12 (stereo not drawn)
inactive: [6] 100 % of control | [7] 105 % of control | [9] 104 % of control

Cn1c(=S)sc2nc3ccccc3n2c1=S
inactive: dose: 30.0 mg/kg/injection, schedule: Q01DX005 (ip), vehicle: saline with Tween-80 117 % of control | [13] 121 % of control | [14] 108 % of control

O=C(NCc1ccco1)C(=O)N/N=C/c1ccccc1O
inactive: [6] 89 % of control | [7] 92 % of control | [9] 92 % of control

O=C1C=CC(=Nc2ccc3c(c2)C(Br)c2ccccc2-3)O1 (stereo not drawn)
inactive: dose: 4.0 mg/kg/injection, schedule: Q01DX009 (ip), vehicle: saline with Tween-80 113 % of control | dose: 6.0 mg/kg/injection, schedule: Q01DX009 (ip), vehicle: saline with Tween-80 104 % of control | dose: 6.25 mg/kg/injection, schedule: Q04DX003 (ip), vehicle: saline with Tween-80 113 % of control | dose: 9.0 mg/kg/injection, schedule: Q01DX009 (ip), vehicle: saline with Tween-80 90 % of control | dose: 12.5 mg/kg/injection, schedule: Q01DX009 (ip), vehicle: saline with Tween-80 113 % of control | dose: 12.5 mg/kg/injection, schedule: Q04DX003 (ip), vehicle: saline with Tween-80 100 % of control | dose: 25.0 mg/kg/injection, schedule: Q04DX003 (ip), vehicle: saline with Tween-80 113 % of control

Nc1ccc2cc(S(=O)(=O)O)cc(O)c2c1N=Nc1ccc(F)cc1
inactive: dose: 25.0 mg/kg/injection, schedule: Q01DX009 (ip), vehicle: saline 93 % of control | dose: 50.0 mg/kg/injection, schedule: Q01DX009 (ip), vehicle: saline 93 % of control | [10] 88 % of control and 91 % of control

CC1NC(=O)NC(=O)C1=S (stereo not drawn)
inactive: [1] 112 % of control | [2] 111 % of control | [3] 113 % of control

CCOC(=O)CC1Cc2ccc3ccc(O)cc3c2C1=O (stereo not drawn)
inactive: dose: 12.5 mg/kg/injection, schedule: Q01DX009 (ip), vehicle: distilled water + Tween-80 94 % of control | dose: 25.0 mg/kg/injection, schedule: Q01DX009 (ip), vehicle: distilled water + Tween-80 95 % of control | dose: 50.0 mg/kg/injection, schedule: Q01DX009 (ip), vehicle: distilled water + Tween-80 92 % of control | dose: 100.0 mg/kg/injection, schedule: Q01DX009 (ip), vehicle: distilled water + Tween-80 86 % of control | dose: 200.0 mg/kg/injection, schedule: Q01DX009 (ip), vehicle: distilled water + Tween-80 92 % of control

CC(C)(C)NC(=O)NCCCCCCNC(=O)NC(C)(C)C
inactive: [13] 96 % of control | [14] 96 % of control | dose: 240.0 mg/kg/injection, schedule: Q01DX005 (ip), vehicle: saline with Tween-80 101 % of control

CC(=O)OC1CC2C(C)(C)OC(=O)C=CC2(C)C2CCC3(C)C(c4ccoc4)C(=O)C4OC43C12C (stereo not drawn)
inactive: dose: 7.5 mg/kg/injection, schedule: Q01DX005 (ip), vehicle: Klucel (hydroxypropylcellulose) (HPC) 88 % of control | dose: 15.0 mg/kg/injection, schedule: Q01DX005 (ip), vehicle: Klucel (hydroxypropylcellulose) (HPC) 93 % of control | [11] 95 % of control | [12] 93 % of control
